Reference: patent publication US6451738B1, “Substituted thienyl(Amino)-sulphonyl(thio)ureas as herbicides” (Bayer Aktiengesellschaft, priority 1996, dated 2002)

Columns and labels:
Alopecurus [1] = assay: Pre-emergence Test/Greenhouse; type: in vivo; settings: 4 g of ai./ha, after three weeks, 0%=no effect, 100%=total destruction
Protocol: (§1) Solvent: 5 parts by weight of acetone
(§2) Emulsifier: 1 part by weight of alkylaryl polyglycol ether
(§3) To produce a suitable preparation of active compound, 1 part by weight of active compound is mixed with the stated amount of solvent, the stated amount of emulsifier is added and the concentrate is diluted with water to the desired concentration.
(§4) Seeds of the test plants are sown in normal soil. After about 24 hours, the soil is sprayed with the preparation of active compound in such a way as to apply the particular amounts of active compound desired per unit area. The concentration of the spray liquor is chosen so that the particular amounts of active compound desired are applied in 1000 l of water/ha.
(§5) After three weeks, the degree of damage to the plants is rated in % damage in comparison with the development of the untreated control.
(§6) 0%=no effect (like untreated control)

Amaranthus [2] = assay: Pre-emergence Test/Greenhouse; type: in vivo; settings: 504 h, after three weeks, 0%=no effect, 100%=total destruction, read-out: degree of damage, Amaranthus; for pest or weed control at 125 g/ha: 125 g of ai./ha; for pest or weed control at 60 g/ha: 60 g of ai./ha
Protocol: as §1, §2, §3, §4, §5, §6

Barley = assay: Pre-emergence Test/Greenhouse; type: in vivo; settings: 4 g of ai./ha, after three weeks, 0%=no effect, 100%=total destruction
Protocol: as §1, §2, §3, §4, §5, §6

Chenopodium [3] = assay: Pre-emergence Test/Greenhouse; type: in vivo; settings: after three weeks, 0%=no effect, 100%=total destruction
Protocol: as §1, §2, §3, §4, §5, §6

Lolium = assay: Pre-emergence Test/Greenhouse; type: in vivo; settings: after three weeks, 0%=no effect, 100%=total destruction
Protocol: as §1, §2, §3, §4, §5, §6

Matricaria [4] = assay: Pre-emergence Test/Greenhouse; type: in vivo; settings: after three weeks, 0%=no effect, 100%=total destruction
Protocol: as §1, §2, §3, §4, §5, §6

Veronica = assay: Pre-emergence Test/Greenhouse; type: in vivo; settings: 4 g of ai./ha, after three weeks, 0%=no effect, 100%=total destruction
Protocol: as §1, §2, §3, §4, §5, §6

Wheat = assay: Pre-emergence Test/Greenhouse; type: in vivo; settings: after three weeks, 0%=no effect, 100%=total destruction
Protocol: as §1, §2, §3, §4, §5, §6

weeds [5] = assay: Pre-emergence Test; type: in vivo; settings: in words
Protocol: as §1, §2, §3, §4, §5, §6

Abutilon [6] = assay: Post-emergence Test/Greenhouse; type: in vivo; settings: 60 g of ai./ha, after three weeks, 0%=no effect, 100%=total destruction
Protocol: as §1, §2, §3
as §4, with “Test plants which have a height” for “Seeds”, “5-15 cm” for “the test plants”, “are” for “are sown in normal soil. After about 24 hours, the soil is”
(§7) After three weeks, the degree of damage to the plants is rated in % damage in comparison to the development of the untreated control.
as §6

Amaranthus [7] = assay: Post-emergence Test/Greenhouse; type: in vivo; settings: 504 h, after three weeks, 0%=no effect, 100%=total destruction, read-out: degree of damage, Amaranthus; for pest or weed control at 60 g/ha: 60 g of ai./ha
Protocol: as §1, §2, §3
as §4, with “Test plants which have a height” for “Seeds”, “5-15 cm” for “the test plants”, “are” for “are sown in normal soil. After about 24 hours, the soil is”
as §7, §6

Chenopodium [8] = assay: Post-emergence Test/Greenhouse; type: in vivo; settings: 60 g of ai./ha, after three weeks, 0%=no effect, 100%=total destruction
Protocol: as §1, §2, §3
as §4, with “Test plants which have a height” for “Seeds”, “5-15 cm” for “the test plants”, “are” for “are sown in normal soil. After about 24 hours, the soil is”
as §7, §6

Matricaria [9] = assay: Post-emergence Test/Greenhouse; type: in vivo; settings: 60 g of ai./ha, after three weeks, 0%=no effect, 100%=total destruction
Protocol: as §1, §2, §3
as §4, with “Test plants which have a height” for “Seeds”, “5-15 cm” for “the test plants”, “are” for “are sown in normal soil. After about 24 hours, the soil is”
as §7, §6

Xanthium = assay: Post-emergence Test/Greenhouse; type: in vivo; settings: 60 g of ai./ha, after three weeks, 0%=no effect, 100%=total destruction
Protocol: as §1, §2, §3
as §4, with “Test plants which have a height” for “Seeds”, “5-15 cm” for “the test plants”, “are” for “are sown in normal soil. After about 24 hours, the soil is”
as §7, §6

weeds [10] = assay: Post-emergence Test; type: in vivo; settings: in words
Protocol: as §1, §2, §3
as §4, with “Test plants which have a height” for “Seeds”, “5-15 cm” for “the test plants”, “are” for “are sown in normal soil. After about 24 hours, the soil is”
as §7, §6

Avena fatua = assay: Pre-emergence Test/Greenhouse; type: in vivo; settings: 125 g of ai./ha, after three weeks, 0%=no effect, 100%=total destruction
Protocol: as §1, §2, §3, §4, §5, §6

Galium = assay: Pre-emergence Test/Greenhouse; type: in vivo; settings: after three weeks, 0%=no effect, 100%=total destruction
Protocol: as §1, §2, §3, §4, §5, §6

Sinapis [11] = assay: Pre-emergence Test/Greenhouse; type: in vivo; settings: after three weeks, 0%=no effect, 100%=total destruction
Protocol: as §1, §2, §3, §4, §5, §6

Alopecurus [12] = assay: Post-emergence Test/Greenhouse; type: in vivo; settings: after three weeks, 0%=no effect, 100%=total destruction
Protocol: as §1, §2, §3
as §4, with “Test plants which have a height” for “Seeds”, “5-15 cm” for “the test plants”, “are” for “are sown in normal soil. After about 24 hours, the soil is”
as §7, §6

Sinapis [13] = assay: Post-emergence Test/Greenhouse; type: in vivo; settings: after three weeks, 0%=no effect, 100%=total destruction
Protocol: as §1, §2, §3
as §4, with “Test plants which have a height” for “Seeds”, “5-15 cm” for “the test plants”, “are” for “are sown in normal soil. After about 24 hours, the soil is”
as §7, §6

Echinochloa = assay: Pre-emergence Test/Greenhouse; type: in vivo; settings: 60 g of ai./ha, after three weeks, 0%=no effect, 100%=total destruction
Protocol: as §1, §2, §3, §4, §5, §6

Abutilon [14] = assay: Pre-emergence Test/Greenhouse; type: in vivo; settings: 60 g of ai./ha, after three weeks, 0%=no effect, 100%=total destruction
Protocol: as §1, §2, §3, §4, §5, §6

Setaria [15] = assay: Pre-emergence Test/Greenhouse; type: in vivo; settings: 60 g of ai./ha, after three weeks, 0%=no effect, 100%=total destruction
Protocol: as §1, §2, §3, §4, §5, §6

Cyperus = assay: Pre-emergence Test/Greenhouse; type: in vivo; settings: 60 g of ai./ha, after three weeks, 0%=no effect, 100%=total destruction
Protocol: as §1, §2, §3, §4, §5, §6

Setaria [16] = assay: Post-emergence Test/Greenhouse; type: in vivo; settings: 60 g of ai./ha, after three weeks, 0%=no effect, 100%=total destruction
Protocol: as §1, §2, §3
as §4, with “Test plants which have a height” for “Seeds”, “5-15 cm” for “the test plants”, “are” for “are sown in normal soil. After about 24 hours, the soil is”
as §7, §6

Row | SMILES | activity against weeds (weeds [5]) | degree of damage, Abutilon (Abutilon [6]) [%] | pest or weed control at 60 g/ha (Amaranthus [7]) [%] | activity against weeds (weeds [10]) | melting point [°C] | pest or weed control at 60 g/ha (Amaranthus [2]) [%] | degree of damage, Sinapis (Sinapis [11]; 60 g of ai./ha) [%] | degree of damage, Sinapis (Sinapis [13]; 60 g of ai./ha) [%] | further results
1 | COc1nc(C)nc(NC(=O)NS(=O)(=O)c2c(C)csc2C)n1 [Example 1, N-(4-methoxy-6-methyl-1,3,5-triazin-2-yl)-N′-(2,4-dimethyl-thien-3-yl-sulplhonyl)-urea] | very strong activity | 95 | 95 | strong activity | 189 | – | – | – | degree of damage, Alopecurus (Alopecurus [1]): 100%; pest or weed control at 4 g/ha (Amaranthus [2]; 4 g of ai./ha): 100%; degree of damage, Barley (Barley): 0%; degree of damage, Chenopodium (Chenopodium [3]; 4 g of ai./ha): 100%; degree of damage, Lolium (Lolium; 4 g of ai./ha): 100%; degree of damage, Matricaria (Matricaria [4]; 4 g of ai./ha): 100%; degree of damage, Veronica (Veronica): 100%; degree of damage, Wheat (Wheat; 4 g of ai./ha): 0%; degree of damage, Chenopodium (Chenopodium [8]): 100%; degree of damage, Matricaria (Matricaria [9]): 95%; degree of damage, Xanthium (Xanthium): 100%
2 | Cc1csc(C)c1S(=O)(=O)NC(=O)Nc1nc(OCC(F)(F)F)nc(N(C)C)n1 [Example 6] | very strong activity | – | – | strong activity | 195 | – | – | – | pest or weed control at 125 g/ha (Amaranthus [2]): 90%; degree of damage, Avena fatua (Avena fatua): 80%; degree of damage, Galium (Galium; 125 g of ai./ha): 100%; degree of damage, Sinapis (Sinapis [11]; 125 g of ai./ha): 90%; degree of damage, Alopecurus (Alopecurus [12]; 125 g of ai./ha): 100%; pest or weed control at 125 g/ha (Amaranthus [7]; 125 g of ai./ha): 80%; degree of damage, Sinapis (Sinapis [13]; 125 g of ai./ha): 100%
3 | COc1cc(OC)nc(NC(=O)NS(=O)(=O)c2c(C)csc2C)n1 [Example 7] | very strong activity | 95 | 95 | strong activity | 198 | – | – | – | degree of damage, Chenopodium (Chenopodium [3]; 60 g of ai./ha): 90%; degree of damage, Echinochloa (Echinochloa): 95%; degree of damage, Lolium (Lolium; 60 g of ai./ha): 95%; degree of damage, Matricaria (Matricaria [4]; 60 g of ai./ha): 95%; degree of damage, Wheat (Wheat; 60 g of ai./ha): 10%; degree of damage, Chenopodium (Chenopodium [8]): 95%; degree of damage, Matricaria (Matricaria [9]): 95%; degree of damage, Xanthium (Xanthium): 95%
4 | Cc1csc(C)c1S(=O)(=O)NC(=O)Nc1nc(Oc2ccccc2)nc(N(C)C)n1 [Example 8] | very strong activity | – | – | – | 173 | – | – | – | pest or weed control at 125 g/ha (Amaranthus [2]): 80%; degree of damage, Avena fatua (Avena fatua): 80%; degree of damage, Galium (Galium; 125 g of ai./ha): 90%; degree of damage, Sinapis (Sinapis [11]; 125 g of ai./ha): 80%
5 | COc1nc(NC(=O)NS(=O)(=O)c2c(C)csc2C)nc(OC)n1 [Example 9] | very strong activity | 80 | 100 | strong activity | 168 | 90 | 90 | 95 | degree of damage, Abutilon (Abutilon [14]): 90%
6 | COc1nc(NC(=O)NS(=O)(=O)c2c(C)csc2C)nc(C2CC2)n1 [Example 10] | very strong activity | – | – | – | 180 | 80 | – | – | degree of damage, Galium (Galium; 60 g of ai./ha): 100%; degree of damage, Setaria (Setaria [15]): 80%
7 | CSc1nc(C)nc(NC(=O)NS(=O)(=O)c2c(C)csc2C)n1 [Example 11] | – | – | 100 | strong activity | 220 | – | – | 100 | –
8 | CCc1nc(NC(=O)NS(=O)(=O)c2c(C)csc2C)nc(OC)n1 [Example 13] | – | 90 | 100 | strong activity | 161 | – | – | 95 | –
9 | Cc1cc(C)nc(NC(=O)NS(=O)(=O)c2c(C)csc2C)n1 [Example 14] | very strong activity | – | 100 | strong activity | 240 | 90 | 90 | 100 | degree of damage, Cyperus (Cyperus): 100%; degree of damage, Alopecurus (Alopecurus [12]; 60 g of ai./ha): 80%
10 | COc1cc(C)nc(NC(=O)NS(=O)(=O)c2c(C)csc2C)n1 [Example 15] | very strong activity | 90 | 100 | strong activity | 140 | 90 | 100 | 100 | degree of damage, Abutilon (Abutilon [14]): 100%; degree of damage, Setaria (Setaria [16]): 90%
11 | COc1cc(Cl)nc(NC(=O)NS(=O)(=O)c2c(C)csc2C)n1 [Example 16] | very strong activity | – | 100 | strong activity | 219 | 95 | 95 | 95 | degree of damage, Cyperus (Cyperus): 80%
